Patent US8580493B2, “Screening for compounds that modulate GPR3-mediated beta-arrestin signaling and amyloid beta peptide generation” (VIB VZW, priority 2009, dated 2013)

Tests used:
[1] = test system: β-arrestin 2 recruitment to GPR3; experiment: PathHunter β-arrestin assay after siRNA transfection of the CHO GPR3 β-arrestin 2 cell line; format: cell-based, Chinese hamster; details: PathHunter CHO GPR3 β-arrestin 2 cells, 20 μg siRNA, FIG. 5
Source text: A modified β-galactosidase complementation assay, referred to as PathHunter™ technology, is another preferred assay method (Olson and Eglen 2007). The principle of the assay is the detection of an interaction between GPR3 and β-arrestin following receptor activation. The assay is unique because it provides a direct measure of β-arrestin binding, whereas imaging assays detect the movement of β-arrestin. […] The assay makes use of a low affinity peptide derived from the amino-terminus of Escherichia coli β-galactosidase, which is tethered to the carboxy-terminus of GPR3 (ProLink™ tag), and a w-deletion mutant of β-galactosidase, which is fused to β-arrestin (enzyme acceptor or EA). The use of the low-affinity ProLink™ peptide ensures that the enzyme fragment complementation (EFC) reaction is driven by the receptor-stimulated, reversible interaction of GPR3 with β-arrestin and not by β-galactosidase complementation in the absence of receptor stimulation. Thus, complementation between β-arrestin and GPR3 results in the formation of a functional enzyme that is capable of hydrolyzing a substrate and generating a chemiluminescent signal. Given the finding that β-arrestin modulates Aβ release, the PathHunter™ β-arrestin assay would facilitate the identification of potential allosteric modulators of Aβ generation. […]

[2] = test system: Aβ generation in CHO/β-arrestin 2/GPR3 cells; experiment: Aβ1-40 and Aβ1-42 ELISA of culture supernatants after siRNA transfection of CHO/β-arrestin 2/GPR3 cells; format: cell-based, Chinese hamster; details: 20 μg siRNA, FIG. 6
Source text: Chemically synthesized, double-stranded siRNAs targeting β-arrestin 1 or 2 with 19-nucleotide duplex RNA and 2-nucleotide 3′-dTdT overhangs containing fluorescent tags to determine transfection efficiency were purchased from Qiagen. The sequences of the siRNA have been previously described (Aim et al. 2003; 2004; see also Table 1). As a control, non-silencing siRNA with the sequence 5′-[…]-3′ (SEQ ID NO:10) was used in the experiment. The PathHunter™ Chinese hamster ovary (CHO) GPR3 β-arrestin 2 cell line, which stably expresses GPR3 and β-arrestin 2, was transfected with 20 μg of siRNA using the GeneSilencer Transfection reagent (Genlantis) as previously described by Aim et al. (2003). Forty-eight hours following transfection, cells were divided into six-well and 96-well plates for further experiments. Twenty-four hours after plating, cells were placed in serum-free medium for an additional 24 hours. The PathHunter™ β-arrestin assay was performed on the cells in the 96-well plate to determine the extent of β-arrestin 2 recruitment to GPR3 following a reduction in the expression of β-arrestin 1 or β-arrestin 2.
Culture supernatant samples were collected from cells seeded in the six-well plates to determine the effect of a reduction in β-arrestin 2 recruitment to GPR3 on Aβ1-40 and Aβ1-42 generation. […]

[3] = test system: Aβ generation in HEK293 APP695 cells; experiment: Aβ1-40 and Aβ1-42 ELISA of culture supernatants after siRNA transfection of HEK293 APP695 cells; format: cell-based; details: HEK293 APP695 cells co-transfected with human GPR3 plasmid, 20 μg siRNA
Source text: FIGS. 1A and 1B: Effect of siRNA-mediated β-arrestin depletion on Aβ1-40 (FIG. 1A) and Aβ1-42 (FIG. 1B) generation in HEK293 APP695 cells. Cells were transfected with pcDNA or GPR3, and siRNA targeting β-arrestin 1, 2, both, or a non-silencing (control) RNA duplex prior to measurement of Aβ1-40 (FIG. 1A) and Aβ1-42 (FIG. 1B) secretion in cell culture supernatants by ELISA. The results are expressed as the mean percentage ±SD of three independent experiments performed in duplicate relative to non-silencing siRNA (control).
Chemically synthesized, double-stranded siRNAs targeting β-arrestin 1 or 2 with 19-nucleotide duplex RNA and 2-nucleotide 3′-dTdT overhangs containing fluorescent tags to determine transfection efficiency were purchased from Qiagen. The sequences of the siRNA have been previously described (Ahn et al. 2003; 2004; see also Table 1). As a control, non-silencing siRNA with the sequence 5′-[…]-3′ (SEQ ID NO:10) was used in the experiment. […]
To directly determine the requirement of β-arrestin 1 or 2 for constitutive and GPR3-mediated Aβ generation, Aβ levels were measured in HEK293 APP695 cells following transfection with siRNA that specifically targets either β-arrestin 1 or 2 or both. β-arrestin 2 siRNA reduced constitutive Aβ1-40 and Aβ1-42 generation. […]

For “5′-AAAGCCUUCUGCGCGGAGAAU-3′ [β-arrestin 1 siRNA]”, the “β-arrestin 2 recruitment to GPR3 (chemiluminescent signal)” value [1] was “clear increase”, the Aβ1-40 generation [2] was “did not affect” and the Aβ1-42 generation [2] was “modestly stimulated”. For the same substance, the “Aβ1-40 generation with GPR3 co-transfection” value ([3]; FIG. 1A) was “further reduction” and the “Aβ1-42 generation with GPR3 co-transfection” value ([3]; FIG. 1B) was “further reduction”.
